Test results from the supplement of paper PMC10307832.

Tests used:
Test in all cases: relative viability (nuclei count vs DMSO), 5 days (fraction); higher = more cells survive
[1] = compound: COc1cc2ncn(-c3cc(OCc4ccccc4C(F)(F)F)c(C(N)=O)s3)c2cc1OC + C[C@@H](Oc1cc(-c2cnn(C3CCNCC3)c2)cnc1N)c1c(Cl)ccc(F)c1Cl [Crizotinib] (partner 1 µM)
In short: (§1)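 The day after seeding in 1536-well plates, lung cancer cell lines were treated by pin tool with a single drug, or with a fixed anchor-drug dose together with five library-drug doses (not always all listed) in √10 steps. After 5 days, a combined fix-and-stain solution (final 0.05% Triton X-100, 1% formaldehyde, 1 ug/ml Hoechst) was added. Nuclei counted on 4× images gave relative viability as treated counts over vehicle counts, reported as the median of duplicate plates.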

[2] = compound: COc1cc2ncn(-c3cc(OCc4ccccc4C(F)(F)F)c(C(N)=O)s3)c2cc1OC + CC(=O)c1c(C)c2cnc(Nc3ccc(N4CCNCC4)cn3)nc2n(C2CCCC2)c1=O [Palbociclib] (partner 0.5 µM)
In short: as §1

[3] = compound: COc1cc2ncn(-c3cc(OCc4ccccc4C(F)(F)F)c(C(N)=O)s3)c2cc1OC + O=C(CCCCCCC(=O)Nc1ccccc1)NO [Vorinostat] (partner 1 µM)
In short: as §1

[4] = compound: COc1cc2ncn(-c3cc(OCc4ccccc4C(F)(F)F)c(C(N)=O)s3)c2cc1OC + NC(=O)Nc1cc(-c2cccc(F)c2)sc1C(=O)N[C@H]1CCCNC1 [AZD7762] (partner 0.2 µM)
In short: as §1

Cell Line | relative viability ([1]; first compound 0.05 µM) | relative viability ([1]; first compound 0.1581 µM) | relative viability ([1]; first compound 0.5 µM) | relative viability ([1]; first compound 1.581 µM) | relative viability ([1]; first compound 5 µM) | relative viability ([2]; first compound 0.05 µM) | relative viability ([2]; first compound 0.1581 µM) | relative viability ([2]; first compound 0.5 µM) | relative viability ([2]; first compound 1.581 µM) | relative viability ([2]; first compound 5 µM) | relative viability ([3]; first compound 0.05 µM) | relative viability ([3]; first compound 0.1581 µM) | relative viability ([3]; first compound 0.5 µM) | relative viability ([3]; first compound 1.581 µM) | relative viability ([3]; first compound 5 µM) | relative viability ([4]; first compound 0.05 µM) | relative viability ([4]; first compound 0.1581 µM) | relative viability ([4]; first compound 0.5 µM) | relative viability ([4]; first compound 1.581 µM) | relative viability ([4]; first compound 5 µM)
A549 | 0.864 | 0.612 | 0.104 | 0.0479 | 0.102 |  |  |  |  |  |  |  |  |  |  |  |  |  |  | 
COR-L23 | 0.667 | 0.671 | 0.3 | 0.118 | 0.12 | 0.27 | 0.335 | 0.22 | 0.119 | 0.111 | 0.381 | 0.416 | 0.162 | 0.0758 | 0.0932 |  |  |  |  | 
COR-L 105 | 0.978 | 0.831 | 0.658 | 0.215 | 0.264 | 0.396 | 0.4 | 0.424 | 0.325 | 0.321 | 0.728 | 0.854 | 0.815 | 0.304 | 0.254 |  |  |  |  | 
Calu-6 | 0.778 | 0.755 | 0.288 | 0.107 | 0.106 |  |  |  |  |  |  |  |  |  |  |  |  |  |  | 
EBC-1 | 0.19 | 0.204 | 0.17 | 0.169 | 0.14 |  |  |  |  |  |  |  |  |  |  |  |  |  |  | 
IA-LM | 0.717 | 0.395 | 0.198 | 0.0759 | 0.0777 |  |  |  |  |  | 0.916 | 0.803 | 0.241 | 0.0678 | 0.0714 |  |  |  |  | 
NCI-H520 | 0.984 | 0.513 | 0.19 | 0.148 | 0.16 | 0.149 | 0.253 | 0.179 | 0.155 | 0.121 | 0.343 | 0.621 | 0.215 | 0.179 | 0.183 |  |  |  |  | 
NCI-H522 |  |  |  |  |  | 0.886 | 0.866 | 0.842 | 1.01 | 0.401 | 0.962 | 1.1 | 0.733 | 0.292 | 0.237 | 1.01 | 0.769 | 0.766 | 0.461 | 0.417
NCI-H596 | 0.959 | 0.965 | 0.991 | 0.814 | 0.401 |  |  |  |  |  | 0.598 | 0.405 | 0.515 | 0.246 | 0.162 | 1.1 | 1.14 | 0.943 | 0.664 | 0.413
NCI-H661 | 0.869 | 0.937 | 0.85 | 0.572 | 0.855 | 0.441 | 0.428 | 0.335 | 0.248 | 0.241 | 0.843 | 0.753 | 0.293 | 0.269 | 0.223 |  |  |  |  | 
NCI-H1299 | 0.982 | 0.939 | 0.572 | 0.305 | 0.329 |  |  |  |  |  |  |  |  |  |  |  |  |  |  | 
NCI-H1395 |  |  |  |  |  | 0.614 | 0.763 | 0.507 | 0.377 | 0.28 | 0.711 | 0.688 | 0.466 | 0.354 | 0.25 | 0.454 | 0.396 | 0.377 | 0.323 | 0.316
NCI-H1563 | 0.832 | 0.968 | 0.872 | 0.661 | 0.582 |  |  |  |  |  |  |  |  |  |  |  |  |  |  | 
NCI-H1650 | 1.03 | 1.03 | 0.765 | 0.17 | 0.194 | 0.295 | 0.329 | 0.234 | 0.146 | 0.141 | 0.484 | 0.555 | 0.36 | 0.154 | 0.133 |  |  |  |  | 
NCI-H1703 | 0.962 | 0.813 | 0.144 | 0.117 | 0.206 |  |  |  |  |  |  |  |  |  |  | 0.141 | 0.131 | 0.104 | 0.119 | 0.104
NCI-H1792 | 1.05 | 0.937 | 0.752 | 0.459 | 0.0845 | 0.728 | 0.631 | 0.568 | 0.377 | 0.332 |  |  |  |  |  | 0.61 | 0.71 | 0.472 | 0.0325 | 0.0304
NCI-H2009 | 1.01 | 0.825 | 0.445 | 0.208 | 0.253 | 0.191 | 0.203 | 0.188 | 0.178 | 0.127 | 0.667 | 0.607 | 0.302 | 0.0531 | 0.0578 |  |  |  |  | 
NCI-H2023 | 0.605 | 0.67 | 0.424 | 0.138 | 0.0906 | 0.397 | 0.41 | 0.265 | 0.0834 | 0.0792 | 0.544 | 0.711 | 0.168 | 0.107 | 0.0613 |  |  |  |  | 
NCI-H2228 | 0.542 | 0.554 | 0.31 | 0.207 | 0.308 | 0.767 | 0.328 | 0.352 | 0.192 | 0.259 | 0.283 | 0.575 | 0.196 | 0.111 | 0.104 |  |  |  |  | 
SK-LU-1 | 0.935 | 0.832 | 0.411 | 0.296 | 0.313 | 0.404 | 0.355 | 0.349 | 0.212 | 0.214 | 0.615 | 0.529 | 0.301 | 0.304 | 0.257 |  |  |  |  | 
SK-MES-1 | 0.971 | 0.861 | 0.627 |  | 0.476 | 0.298 | 0.281 | 0.264 | 0.192 | 0.199 | 1.06 | 1.01 | 0.212 | 0.174 | 0.147 |  |  |  |  | 
SW 1573 | 0.786 | 0.859 | 0.514 | 0.134 | 0.293 | 0.355 | 0.432 | 0.177 | 0.123 | 0.127 | 0.834 | 0.691 | 0.219 | 0.142 | 0.0957 |  |  |  |  | 
UMC-11 | 0.627 | 0.484 | 0.141 | 0.0823 | 0.102 | 0.331 | 0.35 | 0.258 | 0.256 | 0.224 | 0.283 | 0.22 | 0.136 | 0.131 | 0.104 |  |  |  |  | 
